Data from the NIST ThermoML archive (doi:10.1016/j.jct.2017.05.042).

Details: 101.33 kPa, Liquid, Concentric cylinders viscometry

OCC(O)CO [glycerol]
Details | viscosity [mPa·s]
292.89 K | 1470
298.1 K | 970.6
302.59 K | 645.8
312.81 K | 305.3
323.88 K | 147.4
333.15 K | 84.71
343.8 K | 49.83
353.67 K | 31.8
364.12 K | 21.05
374.38 K | 14.74
383.29 K | 11
394.08 K | 8.32
